Source: paper PMC11352409, “Subtype-Specific Ligand Binding and Activation Gating in Homomeric and Heteromeric P2X Receptors” (Biomolecules, 2024)

What was measured:
human P2X2/3 receptors = biological target: T1, human P2X2/3 receptors (Homo sapiens, UniProt P56373+Q9UBL9); test: Confocal binding versus activation of fATP at hP2X2/3 in HEK293 cells; conditions: hP2X2/3, activation rescaled to value at maximal concentration
T1 construct: expressed in transfected cells
T1 sequence (Q9UBL9 1-404 isoform Q9UBL9-2): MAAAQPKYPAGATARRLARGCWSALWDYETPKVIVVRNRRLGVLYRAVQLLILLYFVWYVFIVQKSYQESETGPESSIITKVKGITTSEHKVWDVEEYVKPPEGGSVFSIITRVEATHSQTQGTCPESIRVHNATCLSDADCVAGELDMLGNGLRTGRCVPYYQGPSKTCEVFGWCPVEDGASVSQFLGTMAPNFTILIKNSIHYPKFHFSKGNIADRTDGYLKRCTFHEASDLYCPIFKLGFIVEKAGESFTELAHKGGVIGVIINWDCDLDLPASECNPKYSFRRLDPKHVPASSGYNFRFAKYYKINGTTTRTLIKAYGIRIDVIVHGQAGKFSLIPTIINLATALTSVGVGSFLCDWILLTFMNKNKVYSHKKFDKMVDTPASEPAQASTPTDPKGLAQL
T1 sequence (P56373 1-397): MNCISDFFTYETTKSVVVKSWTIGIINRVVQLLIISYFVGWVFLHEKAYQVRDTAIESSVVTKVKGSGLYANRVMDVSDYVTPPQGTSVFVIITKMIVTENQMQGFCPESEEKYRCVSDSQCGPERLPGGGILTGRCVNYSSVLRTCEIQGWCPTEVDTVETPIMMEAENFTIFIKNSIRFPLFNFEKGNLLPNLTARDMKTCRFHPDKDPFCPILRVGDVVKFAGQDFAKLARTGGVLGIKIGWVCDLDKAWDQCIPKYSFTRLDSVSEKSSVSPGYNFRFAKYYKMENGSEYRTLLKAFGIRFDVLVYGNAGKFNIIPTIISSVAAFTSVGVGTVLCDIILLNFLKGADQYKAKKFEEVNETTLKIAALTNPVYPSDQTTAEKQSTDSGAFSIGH
Procedure: (§1) For the detection of ligand binding, the cells were incubated with the fluorescent ATP derivatives in chambered coverslips or 96-well plates with cover-slip bottoms. The surface was coated with 0.1 mg/mL of poly-L-lysine for 12 h and washed twice with PBS before seeding the cells at […] density. The cells were suspended 24 h after induction and allowed to settle for two hours before being utilised for the measurements. The solutions were freshly prepared before each experiment. The bulk solution was counter-stained with the red fluorescence dye Dy647. Each confocal voxel covering the cell membrane contained both the signal from the bound ligand and the signal from ligands in the bulk solution. This additional signal, e.g., the fraction of the bulk solution inside a voxel, varied from pixel to pixel and can hardly be described theoretically.
Because the difference in image noise contributed within both the bulk solution and the cells, the cell–bulk interfaces were selected using a Sobel operator [31] and appropriate filters/thresholds on the reference fluorophore signal. Note that only cell–bulk boundaries and not cell–cell boundaries were included in this approach. The method was described in detail previously.
The concentration–binding relationships were normalised to their maximum relative fluorescence intensities at a saturating fATP or α,βMe-fATP concentration. […]

human P2X2 receptors = biological target: T2, human P2X2 receptors (Homo sapiens, UniProt Q9UBL9); test: Confocal microscopy binding of fluorescent ATP derivatives to HEK293 cells expressing hP2X2; conditions: for Binding to receptor: hP2X2, confocal binding signal
T2 construct: expressed in transfected cells
T2 sequence (Q9UBL9 1-404 isoform Q9UBL9-2): T1 sequence (Q9UBL9 1-404 isoform Q9UBL9-2)
Procedure: as §1
Figure 2 Confocal microscopy was used to characterise the binding of fluorescently tagged ligands to HEK 293 cells stably expressing human P2X2 receptors. (a) Structure of fATP and α,βMe-fATP. The dye DY547P1 is attached to the 2-position of the purine ring through an aminohexylthio-linker. (b) Representative confocal images for quantification of fATP and α,βMe-fATP binding, including approximately 200 stably transfected cells/mm^2. Specific binding is proven by the lack of signal in non-induced cells and in cells expressing P2X2 receptors in the presence of 100 µM ATP. […]
The concentration–binding relationships were normalised to their maximum relative fluorescence intensities at a saturating fATP or α,βMe-fATP concentration.
Measuring the binding of ligands to receptors is challenging. […] Ligand binding was measured in stably transfected HEK293 cells expressing P2X receptors, attached to the glass bottom of the experimental chamber (Figure 2b). Quantifying ligand binding by automated fluorescence methods remains demanding at low expression levels and high ligand concentrations when the background signal becomes significant. To address this issue, we used the red fluorescence dye Dy647 at a concentration of 1 µM [27, 33, 34]. […]

Concentration at which normalised concentration-activation and concentration-binding curves intersect (human P2X2/3 receptors)	Binding to receptor (human P2X2 receptors)	Fraction of ligand remaining bound at high Mg2+ (human P2X2 receptors; hP2X2, fATP binding after application of 10 mM Mg2+)	SMILES
approximately 0.5 µM	robust binding affinity	~ 40%	COCC[N+]1=C(C=CC=C2N(CCCCCC(=O)NCCCCCCSc3nc(N)c4ncn(C5OC(COP(=O)(O)OP(=O)(O)OP(=O)(O)O)C(O)C5O)c4n3)c3ccc(S(=O)(=O)O)cc3C2(C)C)C(C)(C)c2cc(S(=O)(=O)[O-])ccc21 (stereo not shown) [fATP, 2-[DY-547P1]-AHT-ATP]
–	robust binding affinity	–	COCC[N+]1=C(C=CC=C2N(CCCCCC(=O)NCCCCCCSc3nc(N)c4ncn(C5OC(COP(=O)(O)CP(=O)(O)OP(=O)(O)O)C(O)C5O)c4n3)c3ccc(S(=O)(=O)O)cc3C2(C)C)C(C)(C)c2cc(S(=O)(=O)[O-])ccc21 (stereo not drawn) [α,βMe-fATP, 2-[DY-547P1]-AHT-α,βMe-ATP]
